The record followed here is paper PMC12856912, “Structure-Guided Semisynthesis of Blasticidin S–Amicetin Chimeras as Selective Ribosome Inhibitors” (Journal of the American Chemical Society, 2026).

Data set [1] relates to Methicillin resistant Staphylococcus epidermidis (MRSE) ATCC 35984 NRS101. Kind of data set: Antibacterial MIC assay, serial dilution. The conditions noted are these: for Selectivity index (CC50/MIC) MRSE 35984: CC50 Vero cells / MIC; for MIC: Staphylococcus epidermidis, read-out: MIC Methicillin resistant Staphylococcus epidermidis (MRSE) ATCC 35984 NRS101. Type of data set: cell-based.

The subject of data set [2] is Methicillin resistant S. aureus (MRSA) USA300. Kind of data set: Antibacterial MIC assay, serial dilution. Format: cell-based, Staphylococcus aureus. The conditions noted are these: for Selectivity index (CC50/MIC) MRSA USA300: CC50 Vero cells / MIC; for MIC: Staphylococcus aureus, read-out: MIC Methicillin resistant S. aureus (MRSA) USA300.
The subject of data set [3] is Pseudomonas aeruginosa. Kind of data set: Antibacterial MIC assay, serial dilution. The conditions noted are these: for Selectivity index (CC50/MIC) P. aeruginosa: CC50 Vero cells / MIC; for MIC: Pseudomonas aeruginosa, range from biological replicates, read-out: MIC P. aeruginosa. Type of data set: cell-based. As to the method:
(§1) Media and solutions were autoclaved or sterile filtered prior to use and mani pulations were carri ed out in a laminar flow hood. Antibacterial t esting was performed in polypropylene 96-well flat bottom plates. The minimal inhibitory concentration of blasticidin S (1) hydrochloride, methyl ester (3) trihydrochloride, P10 (2) tri-T FA , phenet hyl amide (4) tri -T FA , an d blastimidines M 19– 22, A, 29–32, P 37–40, and C 43–46 (salt forms as described in the te xt) were assessed against Staphylococcus aureus ΔNorA, S. aureus ATCC 6538P, methicillin-resistant S. aureus (MRSA) ATCC 43300, Enterococcus faecalis ATCC 29212, vancomycin- resistant Enterococcus, Klebsiella pneumoniae ATCC 29665, Pseudomonas aeruginosa,and Acinetobacter baumannii ATCC 17978 using serial dilutions. Doxycycline (Gold Bio) as a positive control and the vehicle as a negative control. Stock solutions of each compound were prepared at 2.56 mg/mL in 50% DMSO/water and serially diluted in 50% DMSO/water to create master plates. From the master plates, 10 μ L o f each dilution was applied to test plates using a Bravo automated liquid transfer system (Agilent).
(§2) Bacteria previously grown overnight (37 °C, 120–200 RPM), in LB broth were diluted to an OD600 of 0.05 in cation-adjusted Mueller-Hinton broth (CAMHB), grown to an OD600 of ~0.5, and diluted to an OD600 of 0.004 in CAMHB . These diluted cultures were applied to the test plates (190 μL per test well) resulting in final concentrations of the test compounds of 128–1 μg/ m L.
(§3) Growth controls (wells with inoculated media but no vehicle or test compounds) were included to assess any potential toxicity from the vehicle. Th e plates were in cubated at 37 °C for 16–18 h, except fo r VRE and E. faecalis, which w ere in cub ated at 37 °C fo r 24 h. Inh ibition was determined by measuring the optical density at 600 nm (OD60 0) with a Cytation 3 pl ate read er (BioTek). The optical density measurem ents were no rmalized to the positive and negative controls and the vehicle and growth controls were compared and found to b e indistinguishable, indicating no toxicity from […]
(§4) the vehicle used. The MIC was the lowest concentration that inhibited >90% of growth. Two biological replicates were performed in duplicate. MIC values are reported as a range from […]

The subject of data set [4] is Vancomycin resistant Enterococcus faecium NR-31909 (VRE). Kind of data set: Antibacterial MIC assay, serial dilution. Type of data set: cell-based. The conditions noted are these: for Selectivity index (CC50/MIC) VRE NR-31909: CC50 Vero cells / MIC; for MIC: Enterococcus faecium, VRE, 24 h, read-out: MIC Vancomycin resistant Enterococcus faecium NR-31909 (VRE). As to the method:
as §1, §2, §3, §4

Data set [5] concerns Enterococcus faecalis ATCC 29212. Kind of data set: Antibacterial MIC assay, serial dilution. Format: cell-based. The conditions noted are these: for Selectivity index (CC50/MIC) E. faecalis 29212: CC50 Vero cells / MIC; for MIC: Enterococcus faecalis, ATCC 29112 / ATCC 29212, 24 h, read-out: MIC E. faecalis ATCC 29112. As to the method: as §1, §2, §3, §4
The test system of data set [6] is Klebsiella pneumoniae ATCC 29665. Kind of data set: Antibacterial MIC assay, serial dilution. Type of data set: cell-based. To be noted: for Selectivity index (CC50/MIC) K. pneumoniae: CC50 Vero cells / MIC; for MIC: Klebsiella pneumoniae, ATCC29665, range from biological replicates, read-out: MIC K. pneumoniae ATCC-29665. As to the method:
as §1, §2, §3, §4

Data set [7] deals with Acinetobacter baumannii ATCC 17978. Kind of data set: Antibacterial MIC assay, serial dilution. Format: cell-based. To be noted: ATCC17978, range from biological replicates. As to the method: as §1, §2, §3, §4
The subject of data set [8] is Vancomycin resistant E. faecalis NR-31972 (VRE). Kind of data set: Antibacterial MIC assay, serial dilution. Type of data set: cell-based, Enterococcus faecalis. To be noted: for Selectivity index (CC50/MIC) VRE NR-31972: CC50 Vero cells / MIC; for MIC: Enterococcus faecalis, VRE, 24 h, read-out: MIC Vancomycin resistant E. faecalis NR-31972 (VRE). As to the method:
as §1, §2, §3, §4

In data set [9] the test system is Escherichia coli BAA-2452. Kind of data set: Antibacterial MIC assay, serial dilution. Type of data set: cell-based. The conditions noted are these: BAA2452, read-out: MIC Escherichia coli BAA-2452.
Data set [10] deals with S. aureus ATCC 6538P. Kind of data set: Antibacterial MIC assay, serial dilution. Type of data set: cell-based, Staphylococcus aureus. The conditions noted are these: for Selectivity index (CC50/MIC) S. aureus 6538P: CC50 Vero cells / MIC; for MIC: Staphylococcus aureus, ATCC 6538P / ATCC 6539P, read-out: MIC S. aureus ATCC 6539P. As to the method: as §1, §2, §3, §4
The test system of data set [11] is S. aureus ΔNorA. Kind of data set: Antibacterial MIC assay, serial dilution. Type of data set: cell-based, Staphylococcus aureus. The conditions noted are these: for Selectivity index (CC50/MIC) S. aureus ΔNorA: CC50 Vero cells / MIC; for MIC: Staphylococcus aureus, read-out: MIC S. aureus ∆NorA. As to the method: as §1, §2, §3, §4
Data set [12] concerns MRSA ATCC 43300. Kind of data set: Antibacterial MIC assay, serial dilution. Format: cell-based, Staphylococcus aureus. The conditions noted are these: for Selectivity index (CC50/MIC) MRSA 43300: CC50 Vero cells / MIC; for MIC: Staphylococcus aureus, read-out: MIC MRSA ATCC 43300. As to the method:
as §1, §2, §3, §4

Data set [13] can be described thus: Cytotoxicity assay (MTS/PMS). Type of data set: cell-based. To be noted: monkey, Vero cells (monkey kidney epithelial cells); 24 h treatment, MTS/PMS, average of three biological replicates; read-out: CC50 against Vero cells. As to the method: The potential cytotoxic eff ect of the test compounds was investigated using Vero cells (monkey kidney epitheli al cells) following est ablished protocols.3 Briefly, Vero cells were plated into 96-well plates supplemented with Dulbecco's Modified Eagle Medium (DMEM) containing 10% fetal bovine serum (FBS). The cells were placed in a humidified 37 °C environment for incubation with 5% CO₂ for 24 h to allow proper adherence and growth. Following the incubation period, the culture medium was replaced with fresh DMEM containing serial dilutions of the test compounds, while the v ehicle alon e w as used as a negative control. The treated cells were incubated for an additional 24 h. To assess cell viability, the MTS/PMS reagent was added to each well and incubat ed for 4 h. A microplate reader (S ynergy H1, BioTek, USA) was used to m easure absorbance at 490 nm. Al l experiments wer e cond ucted usingthree biologi cal replicates .
Ta b l e S2. CC50 valuesa (µg/mL) against Vero cells […]
aValues at which the cell viability (normalized to vehicle control) was 50%. […]

Values after ≈ are worked out from the molar mass of the structure shown. Bounds are passed on as bounds.

`CN(CC[C@H](N)CC(=O)N[C@H]1C=C[C@H](n2ccc(N)nc2=O)O[C@@H]1C(N)=O)C(=N)N` [Blastimidine A1, P10, reference compound]: the “Selectivity index (CC50/MIC) MRSE 35984” value in data set [1] was found to be 0.2. Besides, the MIC in data set [1] stood at 32 µg/mL (≈ 75.9 µM); in [2], 16 µg/mL (≈ 38 µM); in data set [3] it was 64 µg/mL (≈ 152 µM); in data set [4], 32 µg/mL (≈ 75.9 µM); in [5], 32 µg/mL (≈ 75.9 µM); in data set [6], 32 µg/mL (≈ 75.9 µM). Besides, the MIC in data set [7] was determined as 32 µg/mL (≈ 75.9 µM); in [8], 64 µg/mL (≈ 152 µM); in data set [9] it was 16 µg/mL (≈ 38 µM); in data set [10], 32 µg/mL (≈ 75.9 µM); in [11], 128 µg/mL (≈ 304 µM); in data set [12], 32 µg/mL (≈ 75.9 µM). Besides, the “Selectivity index (CC50/MIC) MRSA USA300” value in data set [2] is recorded as 0.4. For the same compound, the “Selectivity index (CC50/MIC) P. aeruginosa” value in data set [3] is 0.1. In addition, the “Selectivity index (CC50/MIC) VRE NR-31909” value in data set [4] amounted to 0.2. Moreover, the “Selectivity index (CC50/MIC) E. faecalis 29212” value in data set [5] was determined as 0.2. Moreover, the “Selectivity index (CC50/MIC) K. pneumoniae” value in [6] worked out at 0.2. In addition, the “Selectivity index (CC50/MIC) VRE NR-31972” value in [8] is 0.1. Besides, in [10], the “Selectivity index (CC50/MIC) S. aureus 6538P” value is on record as 0.2. Besides, the “Selectivity index (CC50/MIC) S. aureus ΔNorA” value in [11] is 0.1. Also, the “Selectivity index (CC50/MIC) MRSA 43300” value in data set [12] is listed as 0.2. Further, in data set [13], the CC50 at 24 h came to 7 µg/mL (≈ 16.6 µM).

On to `CC(=O)Nc1ccc(C(=O)Nc2ccn([C@H]3C=C[C@H](NC(=O)C[C@@H](N)CCN(C)C(=N)N)[C@@H](C(N)=O)O3)c(=O)n2)cc1` [Blastimidine A4], for which the “Selectivity index (CC50/MIC) MRSE 35984” value in [1] was 1.1. Further, the MIC in data set [1] is 64 µg/mL (≈ 110 µM); in data set [2], 64 µg/mL (≈ 110 µM); in data set [3] it was more than 128 µg/mL; in data set [4], 32 µg/mL (≈ 54.9 µM); in data set [5], 32 µg/mL (≈ 54.9 µM); in data set [6] it was 16 to 32 µg/mL (≈ 27.5 to 54.9 µM). In addition, the MIC in data set [7] is more than 128 µg/mL; in data set [8], 64 µg/mL (≈ 110 µM); in data set [9] it was 32 µg/mL (≈ 54.9 µM); in data set [10], 64 µg/mL (≈ 110 µM); in data set [11], 64 µg/mL (≈ 110 µM); in data set [12], 64 µg/mL (≈ 110 µM). Moreover, the “Selectivity index (CC50/MIC) MRSA USA300” value in [2] is 1.1. Also, the “Selectivity index (CC50/MIC) P. aeruginosa” value in [3] is less than 0.5. Moreover, the “Selectivity index (CC50/MIC) VRE NR-31909” value in data set [4] was 2.1. In addition, the “Selectivity index (CC50/MIC) E. faecalis 29212” value in data set [5] is reported as 2.1. The “Selectivity index (CC50/MIC) K. pneumoniae” value in [6] was 3.2. For the same compound, the “Selectivity index (CC50/MIC) VRE NR-31972” value in data set [8] was found to be 1.1. Also, in [10], the “Selectivity index (CC50/MIC) S. aureus 6538P” value is listed as 1.1. In addition, the “Selectivity index (CC50/MIC) S. aureus ΔNorA” value in [11] was 1.1. The “Selectivity index (CC50/MIC) MRSA 43300” value in [12] is 1.1. In addition, the CC50 at 24 h in data set [13] was 68 µg/mL (≈ 117 µM).
